Consider four molecules from patent US8263079B2, “Antibodies against CSF-1R” (ImClone, LLC, priority 2010, dated 2012).

A value given as a limit tells only on which side of the number the result lay.

One experiment relates to HCC-1954 breast cells. As to the kind of experiment: Breast tumor combination studies, HCC-1954 xenograft. It is filed as in vivo, mouse. From the text: Inject Nu/nu mice (female, 7-8 weeks of age) subcutaneously with 1×10^7 HCC-1954 breast cells/mouse and allow tumors to reach 300 mm^3 before treatment. Randomize mice into groups of 12 and treat as follows:
Measure tumor volumes and calculate the T/C % for each treatment group as the ratio of the relative tumor volumes versus the control group. Analyze tumor volumes using RM ANOVA.

The next experiment concerns DU145 prostate cells. Description: Prostate tumor combination study, DU145 xenograft. Type of experiment: in vivo, mouse. The following applies: 12 mg/kg IP Q7Dx3, vs saline control, P 0.15. From the text:
Inject Nu/nu mice (male, 7-8 weeks of age) subcutaneously with 1.5×10^7 DU145 prostate cells/mouse and allow tumors to reach 300 mm^3 before treatment. Randomize mice into groups of 10 and treat as follows:
Measure tumor volumes and calculate the T/C % for each treatment as the ratio of the relative tumor volumes versus the control group. Analyze tumor volumes using RM ANOVA.

For the next experiment, the target named is T1, CSF-1R (Homo sapiens, UniProt P07333).
T1 construct: expressed in transfected cells
As to the kind of experiment: Degradation of CSF-1R in NIH-3T3-CSF-1R cells (Western blot, normalized to actin). Type of experiment: cell-based. On the procedure: Seed NIH-3T3-CSF-1R cells at 5×10^5 cells/well in a 12 well plate in 1 mL DMEM media containing 10% FBS and 1 mg/mL geniticin. […] CSF-1 is known to induce internalization and degradation of CSF-1R, thereby acting as a positive control for the experiment. Allow CSF-1 to remain on cells for 1 and 5 hours before collecting cells. […] Aspirate medium, lyse cells and run clarified lysates on gels (as described above). Probe transferred proteins with anti-CSF-1R antibodies to determine the amount of receptor for each condition. Probe the same blots with anti-actin antibodies to normalize protein levels. Quantify CSF-1R and actin levels using the Multi-Gauge program to measure band density on the Western blot. The relative total CSF-1R protein level is represented by the total CSF-1R band density divided by the corresponding actin band density.

Consider `CC(=O)O[C@H]1C(=O)[C@@]2(C)[C@H]([C@H](OC(=O)c3ccccc3)[C@]3(O)C[C@H](OC(=O)[C@H](O)[C@@H](NC(=O)c4ccccc4)c4ccccc4)C(C)=C1C3(C)C)[C@]1(OC(C)=O)CO[C@@H]1C[C@@H]2O` [Paclitaxel], for which, in the experiment on HCC-1954 breast cells (10 mg/kg IP Q7Dx3, vs saline control, P<0.01), the “% T/C” value is reported as 60%. On to `CC(=O)O[C@@]12CO[C@@H]1C[C@H](O)[C@@]1(C)C(=O)[C@H](O)C3=C(C)[C@@H](OC(=O)[C@H](O)[C@@H](NC(=O)OC(C)(C)C)c4ccccc4)C[C@@](O)([C@@H](OC(=O)c4ccccc4)[C@H]21)C3(C)C` [Docetaxel], for which the “% T/C” value in the experiment on DU145 prostate cells was 59%. `COc1cccc2c1C(=O)c1c(O)c3c(c(O)c1C2=O)C[C@@](O)(C(=O)CO)C[C@@H]3O[C@H]1C[C@H](N)[C@H](O)[C@H](C)O1` [Doxorubicin]: the “% T/C” value in the experiment with HCC-1954 breast cells (8 mg/kg IP Q7Dx2, vs saline control, P 0.008) is given as 50%.

B1: CSF-1: Colony Stimulating Factor-1, CSF-1R ligand, positive control for receptor degradation (protein, listed as Homo sapiens)
chain: MTAPGAAGRCPPTTWLGSLLLLVCLLASRSITEEVSEYCSHMIGSGHLQSLQRLIDSQMETSCQITFEFVDQEQLKDPVCYLKKAFLLVQDIMEDTMRFRDNTPNAIAIVQLQELSLRLKSCFTKDYEEHDKACVRTFYETPLQLLEKVKNVFNETKNLLDKDWNIFSKNCNNSFAECSSQDVVTKPDCNCLYPKAIPSSDPASVSPHQPLAPSMAPVAGLTWEDSEGTEGSSLLPGEQPLHTVDPGSAKQRPPRSTCQSFEPPETPVVKDSTIGGSPQPRPSVGAFNPGMEDILDSAMGTNWVPEEASGEASEIPVPQGTELSPSRPGGGSMQTEPARPSNFLSASSPLPASAKGQQPADVTGTALPRVGPVRPTGQDWNHTPQKTDHPSALLRDPPEPGSPRISSLRPQGLSNPSTLSAQPQLSRSHSSGSVLPLGELEGRRSTRDRRSPAEPEGGPASEGAARPLPRFNSVPLTDTGHERQSEGSFSPQLQESVFHLLVPSVILVLLAVGGLLFYRWRRRSHQEPQRADSPLEQPEGSPLTQDDRQVELPV
Consider B1, for which, in the experiment with CSF-1R (100 ng/mL CSF-1, by 5 hours, positive control), the “CSF-1R levels (degradation)” value is “halved”. In addition, the “time to degradation of CSF-1R” value with CSF-1R (100 ng/mL CSF-1, positive control) was at most 1 h.
